Test results taken from patent US10597388B2, “Pyridazinone herbicides” (FMC CORPORATION, priority 2014, dated 2020).

Experiments:
Experiment in all cases: Test E greenhouse herbicide test, pre- and postemergence
Assay type in all cases: in vivo
[1] = tested on: beggarticks (hairy beggarticks, Bidens pilosa)
Procedure, shortened: (§1)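 Pre- and postemergence sprays, same solvent–surfactant formulation. Substrate: silt loam (pre), peat-based mix (post, 1–4 leaf, 2–18 cm). Readout: visual control rating 0–100 against controls at 14–21 d.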

[2] = tested on: velvetleaf (Abutilon theophrasti); settings: Preemergence
Procedure, shortened: as §1

[3] = tested on: johnsongrass (Sorghum halepense); settings: Preemergence
Procedure, shortened: as §1

[4] = tested on: sandbur (southem sandbur, Cenchrus echinatus)
Procedure, shortened: as §1

[5] = tested on: crabgrass, large (large crabgrass, Digitaria sanguinalis); settings: Preemergence
Procedure, shortened: as §1

[6] = tested on: nutsedge, yellow (yellow nutsedge, Cyperus esculentus); settings: Preemergence
Procedure, shortened: as §1

[7] = tested on: foxtail, giant (giant foxtail, Setaria faberii); settings: Preemergence
Procedure, shortened: as §1

kochia (Kochia scoparia) = tested on: kochia (Kochia scoparia)
Procedure, shortened: as §1

[8] = tested on: momingglory (Ipomoea coccinea); settings: Preemergence
Procedure, shortened: as §1

[9] = tested on: waterhemp (common waterhemp, Amaranthus rudis)
Procedure, shortened: as §1

[10] = tested on: Italian ryegrass (Lolium multiflorum)
Procedure, shortened: as §1

[11] = 62 g ai/ha, Preemergence, scale 0 to 100 (0 no effect, 100 complete control)
[12] = Preemergence, 31 g ai/ha, scale 0 to 100, 0 no effect, 100 complete control
[13] = Preemergence, 125 g ai/ha, visual, scale 0 no effect to 100 complete control
[14] = Preemergence, 250 g ai/ha, visual, scale 0 no effect to 100 complete control
[15] = 62 g ai/ha, scale 0 to 100 (0 no effect, 100 complete control)
[16] = 125 g ai/ha, scale 0 to 100 (0 no effect, 100 complete control)
[17] = 31 g ai/ha, scale 0 to 100, 0 no effect, 100 complete control
[18] = 250 g ai/ha, visual, scale 0 no effect to 100 complete control
[19] = 125 g ai/ha, visual, scale 0 no effect to 100 complete control
[20] = 125 g ai/ha, Preemergence, scale 0 to 100 (0 no effect, 100 complete control)
[21] = 62 g ai/ha, Postemergence, scale 0 to 100 (0 no effect, 100 complete control)
[22] = 125 g ai/ha, Postemergence, scale 0 to 100 (0 no effect, 100 complete control)
[23] = 250 g ai/ha, Postemergence, scale 0 to 100 (0 no effect, 100 complete control)
[24] = Postemergence, 31 g ai/ha, visual, scale 0 no effect to 100 complete control

Cc1ccc2ccccc2c1-c1c(O)c(C)nn(C)c1=O [Compound 59]
35: Plant response rating, Nutsedge, Yellow [6, 15]
90: Plant response rating, Velvetleaf [2, 17] | Plant response rating, Sandbur [4, 20] | Plant response rating, Sandbur [4, 14] | Plant response rating, Kochia (kochia (Kochia scoparia); [11])
80: Plant response rating, Johnsongrass [3, 19] | Plant response rating, Johnsongrass [3, 18] | Plant response rating, Crabgrass, Large [5, 19] | Plant response rating, Kochia (kochia (Kochia scoparia); [12])
85: Plant response rating, Foxtail, Giant [7, 17]
0: Plant response rating, Johnsongrass [3, 17] | Plant response rating, Crabgrass, Large [5, 17]
95: Plant response rating, Velvetleaf [2, 15] | Plant response rating, Velvetleaf [2, 16] | Plant response rating, Crabgrass, Large [5, 18] | Plant response rating, Foxtail, Giant [7, 15] | Plant response rating, Morningglory [8, 15]
25: Plant response rating, Johnsongrass [3, 15]
100: Plant response rating, Beggarticks [1, 11] | Plant response rating, Beggarticks [1, 12] | Plant response rating, Beggarticks [1, 13] | Plant response rating, Beggarticks [1, 14] | Plant response rating, Foxtail, Giant [7, 18] | Plant response rating, Kochia (kochia (Kochia scoparia); [13]) | Plant response rating, Kochia (kochia (Kochia scoparia); [14]) | Plant response rating, Morningglory [8, 18] | Plant response rating, Waterhemp [9, 11] | Plant response rating, Waterhemp [9, 20] | Plant response rating, Waterhemp [9, 14] | Plant response rating, Ryegrass, Italian [10, 11] | Plant response rating, Ryegrass, Italian [10, 20] | Plant response rating, Ryegrass, Italian [10, 12] | Plant response rating, Ryegrass, Italian [10, 14]
50: Plant response rating, Crabgrass, Large [5, 15] | Plant response rating, Nutsedge, Yellow [6, 17]
75: Plant response rating, Nutsedge, Yellow [6, 16] | Plant response rating, Morningglory [8, 17] | Plant response rating, Waterhemp [9, 12]
70: Plant response rating, Sandbur [4, 11] | Plant response rating, Sandbur [4, 12] | Plant response rating, Nutsedge, Yellow [6, 18]
98: Plant response rating, Velvetleaf [2, 18] | Plant response rating, Foxtail, Giant [7, 19] | Plant response rating, Morningglory [8, 16]

COC(=O)Oc1c(C)nn(C)c(=O)c1-c1c(C)sc2c(C)cc(C)cc12 [Compound 81]
35: Plant response rating, Nutsedge, Yellow [6, 17] | Plant response rating, Kochia (kochia (Kochia scoparia); [20])
98: Plant response rating, Crabgrass, Large [5, 18] | Plant response rating, Foxtail, Giant [7, 15] | Plant response rating, Foxtail, Giant [7, 16]
100: Plant response rating, Beggarticks [1, 21] | Plant response rating, Beggarticks [1, 11] | Plant response rating, Beggarticks [1, 22] | Plant response rating, Beggarticks [1, 20] | Plant response rating, Beggarticks [1, 23] | Plant response rating, Beggarticks [1, 14] | Plant response rating, Johnsongrass [3, 18] | Plant response rating, Foxtail, Giant [7, 18] | Plant response rating, Kochia (kochia (Kochia scoparia); [14]) | Plant response rating, Morningglory [8, 16] | Plant response rating, Morningglory [8, 18] | Plant response rating, Ryegrass, Italian [10, 14]
20: Plant response rating, Kochia (kochia (Kochia scoparia); [11])
85: Plant response rating, Morningglory [8, 15]
80: Plant response rating, Beggarticks [1, 12] | Plant response rating, Nutsedge, Yellow [6, 16] | Plant response rating, Ryegrass, Italian [10, 23]
90: Plant response rating, Beggarticks [1, 24] | Plant response rating, Velvetleaf [2, 16] | Plant response rating, Johnsongrass [3, 15] | Plant response rating, Sandbur [4, 14] | Plant response rating, Crabgrass, Large [5, 16] | Plant response rating, Nutsedge, Yellow [6, 18] | Plant response rating, Waterhemp [9, 11] | Plant response rating, Waterhemp [9, 20] | Plant response rating, Waterhemp [9, 14] | Plant response rating, Ryegrass, Italian [10, 20]
95: Plant response rating, Velvetleaf [2, 18] | Plant response rating, Ryegrass, Italian [10, 11]
50: Plant response rating, Crabgrass, Large [5, 17] | Plant response rating, Waterhemp [9, 24] | Plant response rating, Ryegrass, Italian [10, 24]
30: Plant response rating, Nutsedge, Yellow [6, 15]
40: Plant response rating, Sandbur [4, 11]
75: Plant response rating, Sandbur [4, 23] | Plant response rating, Crabgrass, Large [5, 15] | Plant response rating, Foxtail, Giant [7, 17] | Plant response rating, Kochia (kochia (Kochia scoparia); [23]) | Plant response rating, Waterhemp [9, 23] | Plant response rating, Ryegrass, Italian [10, 22] | Plant response rating, Ryegrass, Italian [10, 12]
10: Plant response rating, Velvetleaf [2, 17] | Plant response rating, Sandbur [4, 12]
0: Plant response rating, Kochia (kochia (Kochia scoparia); [12])
70: Plant response rating, Velvetleaf [2, 15] | Plant response rating, Johnsongrass [3, 17] | Plant response rating, Sandbur [4, 22] | Plant response rating, Sandbur [4, 20] | Plant response rating, Kochia (kochia (Kochia scoparia); [21]) | Plant response rating, Kochia (kochia (Kochia scoparia); [22]) | Plant response rating, Ryegrass, Italian [10, 21]
60: Plant response rating, Sandbur [4, 24] | Plant response rating, Kochia (kochia (Kochia scoparia); [24]) | Plant response rating, Morningglory [8, 17] | Plant response rating, Waterhemp [9, 22] | Plant response rating, Waterhemp [9, 12]
65: Plant response rating, Johnsongrass [3, 16]

CCOC(=O)Oc1c(C)nn(C)c(=O)c1-c1c(C)sc2ccc(C)cc12 [Compound 82]
10: Plant response rating, Nutsedge, Yellow [6, 15]
20: Plant response rating, Kochia (kochia (Kochia scoparia); [12])
0: Plant response rating, Velvetleaf [2, 17] | Plant response rating, Johnsongrass [3, 17] | Plant response rating, Sandbur [4, 12] | Plant response rating, Nutsedge, Yellow [6, 17]
100: Plant response rating, Beggarticks [1, 11] | Plant response rating, Beggarticks [1, 20] | Plant response rating, Beggarticks [1, 12] | Plant response rating, Beggarticks [1, 14] | Plant response rating, Kochia (kochia (Kochia scoparia); [20]) | Plant response rating, Kochia (kochia (Kochia scoparia); [14]) | Plant response rating, Morningglory [8, 18] | Plant response rating, Waterhemp [9, 20] | Plant response rating, Waterhemp [9, 14] | Plant response rating, Ryegrass, Italian [10, 20] | Plant response rating, Ryegrass, Italian [10, 14]
98: Plant response rating, Beggarticks [1, 22] | Plant response rating, Beggarticks [1, 23] | Plant response rating, Velvetleaf [2, 18] | Plant response rating, Kochia (kochia (Kochia scoparia); [21]) | Plant response rating, Kochia (kochia (Kochia scoparia); [23])
85: Plant response rating, Waterhemp [9, 22] | Plant response rating, Waterhemp [9, 12]
50: Plant response rating, Johnsongrass [3, 18] | Plant response rating, Sandbur [4, 24] | Plant response rating, Foxtail, Giant [7, 16] | Plant response rating, Ryegrass, Italian [10, 24]
80: Plant response rating, Crabgrass, Large [5, 16] | Plant response rating, Morningglory [8, 15] | Plant response rating, Ryegrass, Italian [10, 23]
70: Plant response rating, Sandbur [4, 22] | Plant response rating, Crabgrass, Large [5, 15] | Plant response rating, Morningglory [8, 17] | Plant response rating, Waterhemp [9, 24] | Plant response rating, Ryegrass, Italian [10, 21]
40: Plant response rating, Nutsedge, Yellow [6, 16]
95: Plant response rating, Velvetleaf [2, 16] | Plant response rating, Foxtail, Giant [7, 18] | Plant response rating, Kochia (kochia (Kochia scoparia); [22]) | Plant response rating, Ryegrass, Italian [10, 11]
65: Plant response rating, Nutsedge, Yellow [6, 18] | Plant response rating, Foxtail, Giant [7, 15]
60: Plant response rating, Sandbur [4, 20]
90: Plant response rating, Beggarticks [1, 21] | Plant response rating, Beggarticks [1, 24] | Plant response rating, Crabgrass, Large [5, 18] | Plant response rating, Kochia (kochia (Kochia scoparia); [11]) | Plant response rating, Kochia (kochia (Kochia scoparia); [24]) | Plant response rating, Morningglory [8, 16] | Plant response rating, Waterhemp [9, 11] | Plant response rating, Waterhemp [9, 23]
75: Plant response rating, Velvetleaf [2, 15] | Plant response rating, Sandbur [4, 23] | Plant response rating, Sandbur [4, 14] | Plant response rating, Ryegrass, Italian [10, 22] | Plant response rating, Ryegrass, Italian [10, 12]
30: Plant response rating, Foxtail, Giant [7, 17]
35: Plant response rating, Johnsongrass [3, 16] | Plant response rating, Sandbur [4, 11]
